Earlier results in paper PMC3161514 (Chemistry & biology, 2011).

Key:
[1] = test system: vancomycin-resistant Enterococci (VRE); settings: MIC values among the lowest reported for lantibiotics, ref Ekkelenkamp, et al., 2005, Verhoef
[2] = test system: methicillin-resistant S. aureus (MRSA); settings: MIC values among the lowest reported for lantibiotics, ref Ekkelenkamp, et al., 2005, Verhoef
[3] = test system: several strains of S. aureus; settings: against several strains of S. aureus; ref Castiglione, et al., 2008

Row | Substance | Activity against VRE [1] | Activity against MRSA [2] | Potency relative to epidermin [3]
1 | epilancin 15X | active | active | –
2 | microbisporicin | – | – | two orders of magnitude more potent
